The conditions of data set [1]: background; cited from earlier work.
Data set [2] relates to pentylenetetrazole (PTZ) model. The conditions noted are these: background; cited from earlier work.
The test system of data set [3] is NMDA receptor. Kind of data set: Current induced by NMDA, patch clamp. It counts as cell-based, mouse. The conditions noted are these: 100 μM NMDA plus 20 μM EGAR, P>0.05, n=6. How it is done: (§1) The slices of the hippocampus are transferred to an underwater recording room (Warner instrument). In the recording room, the slices are continuously perfused with ACSF at a speed of 3 ml/min, and whole-cell records of neurons of CA1 region of the hippocampus are performed by those experimenters who are not distinguished between a control group and a treated group. The neurons are identified through morphological recognition using an infrared ray differential interference phase-contrast microscope (BX51W, Olympus, Japan). A borosilicate microtube of 1.5 mm (external diameter)×0.86 mm (internal diameter) is drawn via a flame Brown electrode drawing instrument (P-97, Sutter instrument) using a 4 stage drawing scheme, to form a recording electrode with a resistance between 6-9 megohms. The recording electrode for recording is filled with above-mentioned internal liquid, and a whole-cell recording is proceeded by using above-mentioned external liquid.
(§2) (4) With regard to records of currents induced by NMDA, 100 μM of NMDA is added into above-mentioned external liquid; with regard to records of currents induced by AMPA, 20 μM of AMPA is added into above-mentioned external liquid.
Background: The patch-clamp technique gives a direct electrical read-out from membranes.

Data set [4] deals with AMPA receptor. Kind of data set: AMPAR-mediated EPSC and mEPSC in mouse hippocampal slices. It counts as cell-based. As to the method:
as §1
(§3) Bipolar polytetrafluoroethylene insulated iridium is used to perform a voltage-clamp recording of excitatory postsynaptic currents (EPSCs), and platinum microelectrode (AM system) is induced at a frequency of 0.0167 Hz. Records are taken by a Multiclamp 700B amplifier, filtered at 10 kHz, sampled at 200 microseconds, and recorded to a personal computer by using pClamp10.2 software, and then analyzed by using Axon Digidata 1440A and pClamp10.2 (Molecular Devices).
(2) after blocking components of NMDA receptor-mediated EPSCs by adding 50 μM of D-APV to ACSF and blocking AMPAR-mediated EPSCs by adding 10 μM of CNQX to ACSF, remaining EPSCs of both them are also recorded. 10 μM of PTX is added in external liquid to isolate mEPSCs. After 10 μM of CNQX and 20 μM of EGAR and also 50 μM of D-APV (an antagonist of NMDA receptor) and 20 μM of EGAR are added to ACSF, mEPSCs are also recorded. By adding 10 μM of CNQX or 50 μM of D-APV to ACSF, NMDAR-mediated or AMPAR-mediated mEPSCs are isolated.
(3) With regard to a NMDAR-mediated current record, 100 μM of NMDA is added into the above-mentioned external liquid; and with regard to an AMPAR-mediated current record, 20 μM of AMPA is added into above-mentioned external liquid.

Data set [5] has as its system AMPA receptor. Kind of data set: Current induced by AMPA, patch clamp. It counts as cell-based, mouse. As to the method: as §1, §2
A further data set relates to CA1 neuron. As to the kind of experiment: Effect on electrophysiological properties of a neuron. The class given is cell-based, mouse. How it is done: as §1
Data set [6] concerns NMDA receptor. Kind of data set: NMDAR-mediated EPSC and mEPSC in mouse hippocampal slices. The class given is cell-based. As to the method: as §1, §3
(2) after blocking components of NMDA receptor-mediated EPSCs by adding 50 μM of D-APV to ACSF and blocking AMPAR-mediated EPSCs by adding 10 μM of CNQX to ACSF, remaining EPSCs of both them are also recorded. 10 μM of PTX is added in external liquid to isolate mEPSCs. After 10 μM of CNQX and 20 μM of EGAR and also 50 μM of D-APV (an antagonist of NMDA receptor) and 20 μM of EGAR are added to ACSF, mEPSCs are also recorded. By adding 10 μM of CNQX or 50 μM of D-APV to ACSF, NMDAR-mediated or AMPAR-mediated mEPSCs are isolated. […]

Data set [7] deals with PTZ-induced mouse epilepsy. As to the kind of experiment: Model of PTZ-induced epilepsy seizure. It counts as in vivo. The note with it: for preclinical period of epilepsy seizure vs PBS treated group: 30 minutes before PTZ 55 mg/kg i.p. How it is done:
In order to determine anticonvulsive effect of EGAR, the degree of epilepsy after EGAR treatment is evaluated for the model of PTZ-induced epilepsy seizure. EGAR is injected into animals earlier 30 minutes than PTZ. The animals are randomly divided into 4 groups, and each group has 10 animals. 4 groups are given EGAR at 0, 1, 10 and 100 mg/kg respectively. All animals are intraperitoneally injected with PTZ at a dose of 55 mg/kg, and this dose can produce clonic seizures in all control animals.
Behaviors of mice are observed for 30 minutes immediately after PTZ injection. […] Mice are placed in a transparent plastic cage, and are observed for 30 minutes. The cage is thoroughly cleaned by using wet/dry cloth and any olfactory clue is removed with 70% ethanol. Animals that show rampage and forelimb clonus or more serious behavior (rampage, clonus and fall down) are considered to be epilepsy in mouse brain edge. Epilepsy seizure is scored according to the following criteria: 0, no response; 1, immobile; 2, taste movement and grasping; 3, tremor; 4, head shaking; 5, rampage and forelimb clonus; 6, rampage, clonus and fall down; 7, death.

The subject of data set [8] is neurons of CA1 region of the hippocampus. As to the kind of experiment: Whole-cell recording of EPSC and mEPSC in mouse hippocampal slices. The note with it: for amplitudes of mEPSCs: P<0.03. The class given is cell-based. As to the method: Hippocampus is taken from a C57BL/6 mouse to do whole-cell recording. The mouse is deep narcotized with 20% urethane before being decollated, then its brain is rapidly removed and immersed in ice-cold ACSF, then the brain is trimmed, and fixed onto a vibration slicer (Leica VT1000A, Germany) to be cut into coronal slices of 350 microns. The slices are incubated with ACSF for at least 1 hour at room temperature before recording.
as §1, §3
Experiments mentioned below are carried out respectively, and the results are represented by an average value±S.E.M. In addition to data analysis of cumulative probability by the means of K-S test, statistical analyses of biological data are all performed by using T-test. All the statistical analyses are done by using SPSS 13.0 software.
(1) EPSCs of slices treated by EGAR are recorded, while EPSCs of slices without EGAR treatment is as contrast, and 10 μM of PTX is added into the external liquid to separate mEPSCs out.

For another data set, the system named is hippocampal neuron. Kind of data set: Epilepsy-like discharge of a hippocampal neuron induced by low magnesium external liquid. The class given is cell-based, mouse. How it is done: as §1
(5) In an experiment of nominal zero magnesium, magnesium ions are replaced by sodium ions with the same osmotic concentration.

Setting [9] is: behavioral experiment, overall conclusion.

Consider `NS(=O)(=O)c1cccc2c1c([N+](=O)[O-])cc1nc(O)c(O)nc12` [NBQX, 2,3-dihydroxy-6-nitro-7-sulfamoyl benzo [f] quinoxaline], for which the solubility result in data set [1] was “low solubility”. For the same compound, in data set [2], the “effect in pentylenetetrazole (PTZ) model” value is reported as “can play a role”.
Take “EGAR: tetrapeptide with an amino-acid sequence of SEQ ID No.17, contained in the salmon skin active peptide; synthetic EGAR used in tests (Salmo salar)”: the “peak current of NMDA, difference between groups” value in the data set on NMDA receptor [3] is “no significant difference”. Also, the “amplitude of AMPAR-mediated EPSC vs control group” value with AMPA receptor [4] (50 μM D-APV and 20 μM EGAR, P<0.01, n=6) is “significantly lower”. Besides, the “cumulative probabilities of AMPAR-mediated mEPSCs amplitudes vs control group” value in the data set with AMPA receptor [4] (K-S test, p<0.05, n=6) is listed as “reduces”. In addition, the “cumulative probabilities of AMPAR-mediated mEPSC event intervals vs control group” value in the data set with AMPA receptor [4] (K-S test, p>0.05, n=6) was “no difference in frequency”. The “amplitude of AMPAR-mediated mEPSCs vs control group” value in the data set with AMPA receptor [4] (neurons treated by EGAR, P<0.05, t test, n=6) was “decline”. In addition, in the data set with AMPA receptor [4] (neurons treated with EGAR, P>0.05, t test), the “frequencies of AMPAR-mediated mEPSCs vs control group” value is reported as “do not change”. Besides, the “peak current of AMPA, difference between groups” value in the data set on AMPA receptor [5] (20 μM AMPA plus 20 μM EGAR, P<0.01, n=6) was “significant difference”. Besides, in the data set on AMPA receptor [5] (20 μM AMPA, 20 μM EGAR, voltage-clamped at -70 mV), the “inward current induced by AMPA” value is given as “reduced”. In addition, in the data set with CA1 neuron (20 uM of EGAR treated group), the “Action potential half width” value stood at 0.99 ± 0.01 ms, the Amplitude came out at 87.61 ± 1.18 mV, the Frequency was determined as 13.53 ± 2.42 Hz and the Input resistance stood at 164.57 ± 9.96 MΩ. In addition, in the data set on CA1 neuron (20 uM of EGAR treated group), the Membrane capacitance is given as 19.07 ± 0.67 pF, the Resting potential is recorded as −65.57 ± 1.23 mV and the Threshold potential is −45.61 ± 0.2 mV. The “effect on electrophysiological parameters of a CA1 neuron” value in the data set with CA1 neuron (overall conclusion of Table 2) is on record as “no significant effect”. Further, the “amplitude of NMDAR-mediated EPSC vs control group” value in the data set with NMDA receptor [6] (10 μM CNQX then 20 μM EGAR, P>0.05, n=6) was “not changed”. Moreover, in the data set on NMDA receptor [6] (100 μM NMDA plus 20 μM EGAR, P>0.05), the “frequencies of NMDAR-mediated mEPSCs” value is recorded as “no significant difference”. In addition, in the data set on NMDA receptor [6] (100 μM NMDA plus 20 μM EGAR, P>0.05, n=6), the “amplitudes of NMDAR-mediated mEPSCs” value is given as “no significant difference”. In addition, the “preclinical period of epilepsy seizure vs PBS treated group” value (“preclinical period … vs PBS treated group” for short) in data set [7] (1 mg/kg EGAR) is listed as “significant difference”. For the same compound, the “preclinical period … vs PBS treated group” value in [7] (10 mg/kg EGAR) is given as “significant difference”. The “preclinical period … vs PBS treated group” value in data set [7] (100 mg/kg EGAR) is reported as “significant difference”. In data set [7] (setting [9]), the “preclinical period of epilepsy seizure” value is recorded as “extend the preclinical period” and the “tic symptom of PTZ-induced mouse epilepsy” value is on record as “mitigate tic symptom”. Also, the “amplitudes of mEPSCs” value in [8] (20 μM EGAR) was “reduce”. Also, the “amplitudes of mEPSCs” value in [8] (50 μM EGAR) is on record as “reduce”. The “amplitudes of mEPSCs” value in data set [8] (100 μM EGAR) is recorded as “reduce”. In addition, the “cumulative probabilities of mEPSC event intervals vs control group” value in [8] (EGAR treated groups at concentrations) is listed as “no difference”. Further, the “cumulative probabilities of mEPSC amplitudes vs control group” value in data set [8] (EGAR treated groups at concentrations, K-S test p<0.05) is recorded as “reduced”. In data set [8] (slices treated with EGAR, 10 μM PTX), the “mEPSC frequencies vs control group” value is recorded as “no change”. Besides, the “frequency of a peak current caused by low magnesium, difference between groups” value in the data set with hippocampal neuron (20 μM EGAR, P<0.05, n=6) is on record as “significant difference”. In addition, the “epilepsy-like discharge of a hippocampal neuron induced by low magnesium external liquid” value in the data set with hippocampal neuron (overall conclusion) is on record as “can inhibit”.

The values above are taken from patent US10800810B2, “Active peptide for inhibiting AMPA receptor and preparation method and use thereof” (CHINA NATIONAL RESEARCH INSTITUTE OF FOOD AND FERMENTATION …, priority 2015, dated 2020).
